Earlier results as cited in article PMC11101992 (Clinical and Translational Science, 2024).

CN[C@@H]1COc2c(S(=O)(=O)NC(=O)Nc3c4c(cc5c3CCC5)CCC4)cnn2C1 [GDC‐2394]
healthy subjects with rash (900 mg): 22%

CN1CCC[C@]1(C)/C=C/S(=O)(=O)NC(=O)Nc1c2c(cc3c1CCC3)CCC2 [ZYIL1]
IL‐1β release inhibition (IL‐1β release; healthy subjects): > 90%
drug‐related skin reactions (in words) (early clinical trials): did not yet report any drug‐related skin reactions

CS(=O)(=O)CCC#N [dapansutrile]
IL‐1β release reduction (in words) (IL‐1β release; healthy subjects and patients with gout flare): only partially reduced
